In ChEMBL document CHEMBL5108050, “Discovery of a New Class of Uracil Derivatives as Potential Mixed Lineage Kinase Domain-like Protein (MLKL) Inhibitors” (J Med Chem, 2022):

How the values were obtained:
HT-29 = experiment: Anti-necroptic activity in human HT-29 cells assessed as inhibition of TSZ (TNFalpha, Smac mimetic and z-VAD-FMK) induced necroptosis incubated for 24 hrs by celltiter-glo luminescent cell viability assay; type: functional, cell-based; conditions: HT-29, 24 h
[1] = target: Receptor-interacting serine/threonine-protein kinase 3 (Homo sapiens) (UniProt Q9Y572); experiment: Inhibition of full length RIP3 (unknown origin) assessed as substrate phosphorylation using MBP and ATP as substrate at 1 uM preincubated for 15 mins followed by substrate addition and measured after 90 mins by ADP-Glo luminescence assay; values are per cent of control; conditions: time 105.0 min
Chain of Receptor-interacting serine/threonine-protein kinase 3 (Homo sapiens) (Q9Y572 whole entry, looked up, the tested form may be a part): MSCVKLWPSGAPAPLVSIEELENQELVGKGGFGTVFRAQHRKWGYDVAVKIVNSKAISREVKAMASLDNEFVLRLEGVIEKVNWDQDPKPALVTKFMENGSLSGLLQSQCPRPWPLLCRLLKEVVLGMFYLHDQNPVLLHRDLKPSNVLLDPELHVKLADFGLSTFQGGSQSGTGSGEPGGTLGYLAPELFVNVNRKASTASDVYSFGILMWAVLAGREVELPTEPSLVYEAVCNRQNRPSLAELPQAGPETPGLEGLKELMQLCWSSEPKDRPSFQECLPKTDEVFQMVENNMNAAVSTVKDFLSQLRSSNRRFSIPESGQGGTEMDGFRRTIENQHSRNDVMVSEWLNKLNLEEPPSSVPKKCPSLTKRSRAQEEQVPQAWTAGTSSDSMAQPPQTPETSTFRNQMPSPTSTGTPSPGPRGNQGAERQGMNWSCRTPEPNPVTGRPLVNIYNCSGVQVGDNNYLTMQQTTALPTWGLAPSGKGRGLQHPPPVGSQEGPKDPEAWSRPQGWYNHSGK

[2] = target: Receptor-interacting serine/threonine-protein kinase 3 (Homo sapiens) (UniProt Q9Y572); experiment: Inhibition of full length RIP3 (unknown origin) assessed as substrate phosphorylation using MBP and ATP as substrate at 10 uM preincubated for 15 mins followed by substrate addition and measured after 90 mins by ADP-Glo luminescence assay; values are per cent of control; conditions: time 105.0 min
[3] = target: T1, Receptor-interacting serine/threonine-protein kinase 1 (Homo sapiens) (UniProt Q13546); experiment: Inhibition of RIP1 (1 to 375 residues) (unknown origin) assessed as substrate phosphorylation using MBP and ATP as substrate at 1 uM preincubated for 15 mins followed by substrate addition and measured after 90 mins by ADP-Glo luminescence assay; values are per cent of control; conditions: time 105.0 min
T1 sequence (whole entry): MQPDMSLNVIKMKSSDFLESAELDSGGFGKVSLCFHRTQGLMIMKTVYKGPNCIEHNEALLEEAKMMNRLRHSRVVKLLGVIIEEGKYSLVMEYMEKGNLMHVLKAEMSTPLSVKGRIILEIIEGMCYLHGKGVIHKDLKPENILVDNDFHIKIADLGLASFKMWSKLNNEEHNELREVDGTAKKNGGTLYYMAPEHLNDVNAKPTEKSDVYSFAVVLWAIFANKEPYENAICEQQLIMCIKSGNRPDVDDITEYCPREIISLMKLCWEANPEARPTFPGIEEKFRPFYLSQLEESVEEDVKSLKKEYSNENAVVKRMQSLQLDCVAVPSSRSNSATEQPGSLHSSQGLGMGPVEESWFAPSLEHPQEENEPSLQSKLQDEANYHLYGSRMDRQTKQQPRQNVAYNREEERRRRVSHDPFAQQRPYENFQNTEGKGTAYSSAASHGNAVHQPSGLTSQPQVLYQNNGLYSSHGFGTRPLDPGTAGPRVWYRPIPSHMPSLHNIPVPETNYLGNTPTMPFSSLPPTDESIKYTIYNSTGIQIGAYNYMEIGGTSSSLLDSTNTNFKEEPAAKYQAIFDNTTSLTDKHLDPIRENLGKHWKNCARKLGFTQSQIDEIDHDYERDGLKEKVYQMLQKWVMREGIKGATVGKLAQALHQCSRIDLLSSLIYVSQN

[4] = target: T1, Receptor-interacting serine/threonine-protein kinase 1 (Homo sapiens); experiment: Inhibition of RIP1 (1 to 375 residues) (unknown origin) assessed as substrate phosphorylation using MBP and ATP as substrate at 10 uM preincubated for 15 mins followed by substrate addition and measured after 90 mins by ADP-Glo luminescence assay; values are per cent of control; conditions: time 105.0 min

Structure (SMILES) | EC50 (HT-29) [nM] | further results
C=CC(=O)Nc1c(C)n(CC#Cc2cccc(O)c2)c(=O)n(C)c1=O | > 10000 | 
C=CS(=O)(=O)Nc1c(C)n(CC#Cc2cccc(O)c2)c(=O)n(C)c1=O | > 10000 | 
Cc1ccc(CCC(=O)Nc2c(Cl)n(CC#Cc3cccc(Cn4c(C)cccc4=O)c3)c(=O)n(C)c2=O)cc1 | 122 | 
Cc1ccc(CCC(=O)Nc2c(Cl)n(CC#Cc3ccc(Cl)c(Cn4ccccc4=O)c3)c(=O)n(C)c2=O)cc1 | 110 | 
Cn1c(=O)c(NC(=O)Cc2ccccc2)c(Cl)n(CC#Cc2cccc(O)c2)c1=O | 1490 | 
Cc1ccc(CCC(=O)Nc2c(Cl)n(CC#Cc3ccccc3)c(=O)n(C)c2=O)cc1 | 1990 | 
Cn1c(=O)c(NC(=O)Cc2ccc(Cl)cc2)c(Cl)n(CC#Cc2cccc(O)c2)c1=O | 3770 | 
COc1ccc(C#CCn2c(Cl)c(NC(=O)CCc3ccc(C)cc3)c(=O)n(C)c2=O)cc1Cn1ccccc1=O | 85 | 
COc1ccc(CC(=O)Nc2c(Cl)n(CC#Cc3cccc(O)c3)c(=O)n(C)c2=O)cc1 | 1400 | 
COc1cccn(Cc2cc(C#CCn3c(Cl)c(NC(=O)CCc4ccc(C)cc4)c(=O)n(C)c3=O)ccc2F)c1=O | 91 | 
Cn1c(=O)c(NC(=O)Cc2cccc(F)c2)c(Cl)n(CC#Cc2cccc(O)c2)c1=O | 2320 | 
C=CC(=O)Nc1cn(CC#Cc2cccc(O)c2)c(=O)n(C)c1=O | > 10000 | 
CC(=O)Nc1cccc(C#CCn2c(Cl)c(NC(=O)CCc3ccc(C)cc3)c(=O)n(C)c2=O)c1 | 870 | 
CCCCCCCC(=O)Nc1c(Cl)n(CC#Cc2cccc(O)c2)c(=O)n(C)c1=O | 2340 | 
Cn1c(=O)c(NC(=O)CCc2ccccc2F)c(Cl)n(CC#Cc2cccc(O)c2)c1=O | 829 | 
C#CCn1c(Cl)c(NC(=O)CCc2ccc(C)cc2)c(=O)n(C)c1=O | 7240 | 
Cc1ccc(CCC(=O)Nc2c(Cl)n(CC#Cc3ccc4cc[nH]c4c3)c(=O)n(C)c2=O)cc1 | 727 | 
CCc1ccc(CCC(=O)Nc2c(Cl)n(CC#Cc3cccc(O)c3)c(=O)n(C)c2=O)cc1 | 998 | 
CCn1c(=O)c(NC(=O)CCc2ccc(C)cc2)c(Cl)n(CC#Cc2ccc(O)cc2)c1=O | 2220 | 
COc1cccn(Cc2cc(C#CCn3c(Cl)c(NC(=O)CCc4ccc(C)cc4)c(=O)n(C)c3=O)ccc2Cl)c1=O | 90 | 
Cc1ccc(C(=O)Nc2ccc(CN3CCN(C)CC3)c(C(F)(F)F)c2)cc1C#Cc1cnc2cccnn12 [PONATINIB] | 440 | residual activity [1]: 0.97%; residual activity [2]: 0.31%; residual activity [3]: 3.8%; residual activity [4]: 0.4%
Cc1ccc(CCC(=O)Nc2c(Cl)n(CC#Cc3cccc(Cn4cccc(C)c4=O)c3)c(=O)n(C)c2=O)cc1 | 134 | 

Structure (SMILES) | EC50 (HT-29) [nM] | further results
C=CS(=O)(=O)Nc1cn(CC#Cc2cccc(O)c2)c(=O)n(C)c1=O | 2480 | 
Cn1c(=O)c(NC(=O)/C=C/c2ccccc2)c(Cl)n(CC#Cc2cccc(O)c2)c1=O | > 10000 | 
COCCOCC(=O)Nc1c(Cl)n(CC#Cc2cccc(O)c2)c(=O)n(C)c1=O | 4270 | 
Cc1ccc(CCC(=O)Nc2c(Cl)n(CC#Cc3cccc(Cn4ccccc4=O)c3)c(=O)n(C)c2=O)cc1 | 136 | 
Cn1c(=O)c(NC(=O)CCc2ccc(Cl)cc2)c(Cl)n(CC#Cc2cccc(O)c2)c1=O | 540 | 
CC(=O)Nc1ccc(C#CCn2c(Cl)c(NC(=O)CCc3ccc(C)cc3)c(=O)n(C)c2=O)cc1 | 717 | 
Cn1c(=O)c(NC(=O)CC(C)(C)C)c(Cl)n(CC#Cc2cccc(O)c2)c1=O | 5280 | 
CCCn1c(=O)c(NC(=O)CCc2ccc(C)cc2)c(Cl)n(CC#Cc2ccc(O)cc2)c1=O | 1020 | 
Cc1ccc(CCC(=O)Nc2c(Cl)n(CC#Cc3cccc(Cn4cc(C)ccc4=O)c3)c(=O)n(C)c2=O)cc1 | 158 | 
CCC(C)(C)C(=O)Nc1c(Cl)n(CC#Cc2cccc(O)c2)c(=O)n(C)c1=O | > 10000 | 
Cc1ccc(CCC(=O)Nc2c(Cl)n(CC#Cc3ccc(F)c(Cn4ccccc4=O)c3)c(=O)n(C)c2=O)cc1 | 139 | 
Cn1c(=O)c(NC(=O)CCc2ccc(F)cc2)c(Cl)n(CC#Cc2cccc(O)c2)c1=O | 455 | 
Cn1c(=O)c(NC(=O)Cc2ccccc2F)c(Cl)n(CC#Cc2cccc(O)c2)c1=O | 3350 | 
CCC(=O)Nc1c(Cl)n(CC#Cc2cccc(O)c2)c(=O)n(C)c1=O | 3380 | 
C=CS(=O)(=O)Nc1c(Cl)n(CC#Cc2cccc(O)c2)c(=O)n(C)c1=O | 5680 | 
COc1ccn(Cc2cccc(C#CCn3c(Cl)c(NC(=O)CCc4ccc(C)cc4)c(=O)n(C)c3=O)c2)c(=O)c1 | 93 | 
COc1ccc(C#CCn2c(Cl)c(NC(=O)CCc3ccc(C)cc3)c(=O)n(C)c2=O)cc1 | 3390 | 
Cc1ccc(CCC(=O)Nc2c(Cl)n(CC#Cc3ccc4c(c3)CCC(=O)N4)c(=O)n(C)c2=O)cc1 | 132 | residual activity [1]: 102%; residual activity [2]: 90.5%; residual activity [3]: 109%; residual activity [4]: 94.5%
Cc1ccc(CCC(=O)Nc2c(Cl)n(CC#Cc3cccc(NC(=O)c4ccccc4)c3)c(=O)n(C)c2=O)cc1 | 1000 | 
Cn1c(=O)c(NC(=O)Cc2ccc(F)cc2)c(Cl)n(CC#Cc2cccc(O)c2)c1=O | 4600 | 
Cn1c(=O)c(NC(=O)CCc2cccc(F)c2)c(Cl)n(CC#Cc2cccc(O)c2)c1=O | 6300 | 
Cc1ccc(CCC(=O)Nc2c(Cl)n(CC#Cc3ccc(O)cc3)c(=O)n(CC3CCCC3)c2=O)cc1 | > 10000 | 

Structure (SMILES) | EC50 (HT-29) [nM] | further results
Cc1ccc(CCC(=O)Nc2c(Cl)n(CC#Cc3ccc(NCc4ccccc4)cc3)c(=O)n(C)c2=O)cc1 | 2020 | 
Cc1ccc(CCC(=O)Nc2c(Cl)n(CC#Cc3ccc4c(c3)CCC(=O)N4C)c(=O)n(C)c2=O)cc1 | 281 | 
Cn1c(=O)c(NC(=O)CCCc2ccccc2)c(Cl)n(CC#Cc2cccc(O)c2)c1=O | > 10000 | 
COc1ccc(C#CCn2c(Cl)c(NC(=O)CCc3ccc(C)cc3)c(=O)n(C)c2=O)cc1Cn1cccc(OC)c1=O | 85 | residual activity [1]: 96.3%; residual activity [2]: 99.3%; residual activity [3]: 111%; residual activity [4]: 101%
Cc1ccc(CCC(=O)Nc2c(Cl)n(CC#Cc3ccc(O)cc3)c(=O)n(C)c2=O)cc1 | 222 | residual activity [1]: 90.5%; residual activity [2]: 102%; residual activity [3]: 92.1%; residual activity [4]: 96.1%
Cc1ccc(CCC(=O)Nc2c(Cl)n(CC#Cc3cccc(Cn4ccc(C)cc4=O)c3)c(=O)n(C)c2=O)cc1 | 106 | 
C=CC(=O)Nc1c(Cl)n(CC#Cc2cccc(O)c2)c(=O)n(C)c1=O | 950 | residual activity [1]: 102%; residual activity [2]: 108%; residual activity [3]: 84.2%; residual activity [4]: 86.2%
Cc1ccc(CCC(=O)Nc2c(Cl)n(CC#Cc3ccc4[nH]ccc4c3)c(=O)n(C)c2=O)cc1 | 332 | 
Cc1ccc(CCC(=O)Nc2c(Cl)n(CC#Cc3cccc(N)c3)c(=O)n(C)c2=O)cc1 | 1060 | 
Cn1c(=O)c(NC(=O)c2ccccc2)c(Cl)n(CC#Cc2cccc(O)c2)c1=O | > 10000 | 
Cc1ccc(CCC(=O)Nc2c(Cl)n(CC#Cc3cccc(O)c3)c(=O)n(C)c2=O)cc1 | 316 | 
Cc1ccc(CCC(=O)Nc2c(Cl)n(CC#Cc3ccc(Cn4ccccc4=O)cc3)c(=O)n(C)c2=O)cc1 | 168 | 
Cc1ccc(CCC(=O)Nc2c(Cl)n(CC#Cc3ccc4c(c3)CCC(=O)O4)c(=O)n(C)c2=O)cc1 | 113 | 
Cn1c(=O)c(NC(=O)CCc2ccccc2)c(Cl)n(CC#Cc2cccc(O)c2)c1=O | 1070 | 
CCC(C)C(=O)Nc1c(Cl)n(CC#Cc2cccc(O)c2)c(=O)n(C)c1=O (stereo not given) | 1740 | 
COc1cccn(Cc2cccc(C#CCn3c(Cl)c(NC(=O)CCc4ccc(C)cc4)c(=O)n(C)c3=O)c2)c1=O | 82 | 
C=CC(=O)Nc1c(OC)n(CC#Cc2cccc(O)c2)c(=O)n(C)c1=O | > 10000 | 
Cc1ccc(CCC(=O)Nc2c(Cl)n(CC#Cc3ccc(N)cc3)c(=O)n(C)c2=O)cc1 | 1020 | 
Cn1c(=O)c(NC(=O)CCc2ccc(C#N)cc2)c(Cl)n(CC#Cc2cccc(O)c2)c1=O | 639 | 
C=CS(=O)(=O)Nc1c(OC)n(CC#Cc2cccc(O)c2)c(=O)n(C)c1=O | > 10000 | 
Cc1ccc(CCC(=O)Nc2c(Cl)n(CC#Cc3ccc(NC(=O)c4ccccc4)cc3)c(=O)n(C)c2=O)cc1 | 214 | 
